Active and inactive are the calls of the source. No cut-off for these calls is given here.
Experiments:
[1] = Unbound AUC (0 to 6 hrs) in BALB/c mouse at 5 mg/kg, po or 5 mg/kg, iv measured for 24 hrs by LC-MS/MS analysis; type: ADME, organism-based; conditions: in vivo
[2] = system: PA-1; test: Antiproliferative activity against human PA-1 cells assessed as cell growth inhibition measured after 96 hrs by resazurin dye based celltiter-blue viability assay; type: functional
[3] = system: OVCAR-3; test: Antiproliferative activity against human OVCAR-3 cells assessed as cell growth inhibition measured after 96 hrs by resazurin dye based celltiter-blue viability assay; type: functional
[4] = system: OVCAR-8; test: Antiproliferative activity against human OVCAR-8 cells assessed as cell growth inhibition measured after 96 hrs by resazurin dye based celltiter-blue viability assay; type: functional
[5] = system: Caov-3 cell line; test: Antiproliferative activity against human Caov-3 cells assessed as cell growth inhibition measured after 96 hrs by resazurin dye based celltiter-blue viability assay; type: functional
[6] = system: RMG-I; test: Antiproliferative activity against human RMG-I cell line assessed as cell growth inhibition measured after 96 hrs by resazurin dye based celltiter-blue viability assay; type: functional
[7] = system: OVCAR-5; test: Antiproliferative activity against human OVCAR-5 cells assessed as cell growth inhibition measured after 96 hrs by resazurin dye based celltiter-blue viability assay; type: functional
[8] = physchem; conditions: buffer, pH 7.4
[9] = system: IGROV-1; test: Antiproliferative activity against human IGROV-1 cells assessed as cell growth inhibition measured after 96 hrs by resazurin dye based celltiter-blue viability assay; type: functional
[10] = Stability in pooled mouse plasma assessed as drug degradation at 1 uM; type: ADME, cell-free
[11] = system: CH1; test: Antiproliferative activity against human CH1 cells assessed as cell growth inhibition measured after 96 hrs by resazurin dye based celltiter-blue viability assay; type: functional
[12] = species on record: Mus musculus; conditions: dose 50.0 mg/kg, route po
[13] = Unbound AUC (0 to 6 hrs) in BALB/c mouse at 5 mg/kg, po or 1 mg/kg, iv measured for 24 hrs by LC-MS/MS analysis; type: ADME, organism-based; conditions: in vivo
[14] = Reversal of doxorubicin resistance in human doxorubicin resistant CH1 cells assessed as doxorubicin GI50 incubated for 96 hrs by resazurin dye based celltiter-blue cell viability assay (reference value: 310 nM); type: functional
[15] = AUC (0 to 6 hrs) in BALB/c mouse at 5 mg/kg, po measured for 24 hrs by LC-ESI-MS/MS analysis; type: ADME, organism-based; set-up: time 24 hrs, dose 5 mg/kg, route po; conditions: in vivo
[16] = Fraction unbound in BALB/c mouse blood at 5 mg/kg, po or 5 mg/kg, iv measured for 24 hrs by LC-MS/MS analysis; type: ADME, organism-based

Cc1ccc(NC(=O)c2ccc3c(c2)OCCO3)cc1NC(=O)c1ccc2nc(OCCN3CCCCC3)ccc2c1
fAUC [1]: 12 nM·h

Cc1ccc(NC(=O)c2ccc3c(c2)OCCO3)cc1NC(=O)c1ccc2nc(OCCN3CCCC3)ccc2c1
GI50 [2]: 0.0501 µM | GI50 [3]: 0.0501 µM | GI50 [4]: 0.0501 µM | GI50 [5]: 0.0501 µM | GI50 [6]: 0.0501 µM | GI50 [7]: 0.0501 µM | logD [8]: 2.1 | GI50 [9]: 0.0501 µM | Stability [10]: Stable | GI50 [11]: 0.0501 µM

CCN1CCN(Cc2ccc3cc(C(=O)Nc4cc(NC(=O)c5ccc6c(c5)OCCO6)ccc4F)ccc3n2)CC1
inhibition [12]: Active

CC(C)N1CCN(Cc2ccc3cc(C(=O)Nc4cc(NC(=O)c5ccc6c(c5)OCCO6)ccc4Cl)ccc3n2)CC1
fAUC [13]: 26 nM·h

COc1ccc(CCN(C)CCCC(C#N)(c2ccc(OC)c(OC)c2)C(C)C)cc1OC (configuration not stated)
GI50 [14]: 0.0019 µM

CCN1CCN(Cc2ccc3cc(C(=O)Nc4cc(NC(=O)c5ccc6c(c5)OCCO6)ccc4Cl)ccc3n2)CC1
AUC [15]: 3900 nM·h | fraction unbound at 24 h [16]: 0.005 | fAUC [1]: 20 nM·h
